From patent US3944557A, “Pyridinium salts” (Commonwealth Scientific & Industrial Research Organization, priority 1973, dated 1976)

What was measured:
Phytophthora cinnamomi = experiment: Protection of lupin seedlings from infection by P. cinnamomi; format: in vivo; conditions: Table 7
Excerpt: Protection of lupin seedlings from infection by […]

Monolinia fructicola = experiment: Inhibition of spore germination of M. fructicola; format: cell-based; conditions: Monilinia fructicola; Table 7; read-out: 50% inhibition of spore germination (Monolinia fructicola spore germination)
Excerpt: 50% inhibition of spore germination of M. fructicola

Rhizoctonia solani = experiment: Infection of cotton seedlings by Rh. solani (soil application); format: in vivo; conditions: Table 7, 16 kg/ha, read-out: Protection of cotton seedlings from infection by Rh. solani
Excerpt: Infection of cotton seedlings by Rh. solani
100% protection at 16 kg/ha (soil application) ++
50% protection at 16 kg/ha (soil application) +

Fusarium oxysporum = experiment: Infection of tomato seedlings by F. oxysporum (soil application); format: in vivo; conditions: read-out: Protection of tomato seedlings from infection by F. oxysporum
Excerpt: Infection of tomato seedlings by F. oxysporum
100% protection 8 kg/ha (soil application) ++
50% protection at 8 kg/ha (soil application) +

SMILES	minimal effective concentration (Phytophthora cinnamomi)	IC50 (Monolinia fructicola)	pest or weed control at 16000 g/ha (Rhizoctonia solani)	pest or weed control at 8000 g/ha (Fusarium oxysporum)
CCCCNc1cc(N)[n+](CCCC)c(NCc2ccco2)c1C#N [Compound 36]	2 to 8 µg/mL	5 to 50 µg/mL	50%	
CCCCCCNc1c(Br)c(N)[n+](CCCCCC)c(Cl)c1C#N [Compound 67]	2 to 8 µg/mL	≤ 5 µg/mL		50%
CNc1cc(N)[n+](C)c(NCc2ccco2)c1C#N [Compound 23]	> 8 µg/mL			100%
CCCCCCNc1cc(N)[n+](CCCCCC)c(Sc2ccccc2)c1C#N.[Cl-] [Compound 78, 2-amino-5-cyano-1-n-hexyl-4-n-hexylamino-6-phenylmercapto pyridinium chloride]	≤ 2 µg/mL	≤ 5 µg/mL	50%	
CC(C)Nc1cc(N)[n+](C(C)C)c(S(=O)(=O)[O-])c1C#N [Compound 59]	> 8 µg/mL		100%	
CCCCCCNc1cc(N)[n+](CCCCCC)c(NCCCC)c1C#N.[Cl-] [Compound 42, 2-amino-6-n-butylamino-5-cyano-1-n-hexyl-4-n-hexylamino pyridinium chloride]	≤ 2 µg/mL	≤ 5 µg/mL		
CCCCCCCNc1cc(N)[n+](CCCCCCC)c(Cl)c1C#N [Compound 13]	≤ 2 µg/mL	≤ 5 µg/mL		50%
CCCCCCCCNc1cc(N)[n+](CCCCCCCC)c(Cl)c1C#N.[Cl-] [Compound 14, 2-amino-6-chloro-5-cyano-1-n-octyl-4-n-octylamino pyridinium chloride]	≤ 2 µg/mL	≤ 5 µg/mL	100%	50%
CCCCCCCCNc1c(C#N)c(NCCCCCC)cc(N)[n+]1CCCCCC [Compound 44]	≤ 2 µg/mL	≤ 5 µg/mL		50%
CCCCCCCCCCCCNc1c(C#N)c(NC)cc(N)[n+]1C [Compound 27]	30 µg/mL		100%	
CCCCCCCCNc1cc(N)[n+](CCCCCCCC)c(N)c1C#N [Compound 46]	≤ 2 µg/mL	≤ 5 µg/mL	50%	
N#Cc1c(NCc2ccccc2)cc(N)[n+](Cc2ccccc2)c1Cl [Compound 17]	2 to 8 µg/mL	5 to 50 µg/mL		50%
